# According to patent US9730940B2, “Purine inhibitors of human phosphatidylinositol 3-kinase delta” (priority 2012, dated 2017):
# Target: PI3K-alpha (Homo sapiens (Human), UniProt P42336)
# Experiment: HTRF PI3K biochemical assay, alpha isoform
# Conditions: ratio PI3K-alpha IC50 value/PI3K-delta IC50 value
# Chain of PI3K-alpha (P42336 whole entry, looked up, canonical isoform): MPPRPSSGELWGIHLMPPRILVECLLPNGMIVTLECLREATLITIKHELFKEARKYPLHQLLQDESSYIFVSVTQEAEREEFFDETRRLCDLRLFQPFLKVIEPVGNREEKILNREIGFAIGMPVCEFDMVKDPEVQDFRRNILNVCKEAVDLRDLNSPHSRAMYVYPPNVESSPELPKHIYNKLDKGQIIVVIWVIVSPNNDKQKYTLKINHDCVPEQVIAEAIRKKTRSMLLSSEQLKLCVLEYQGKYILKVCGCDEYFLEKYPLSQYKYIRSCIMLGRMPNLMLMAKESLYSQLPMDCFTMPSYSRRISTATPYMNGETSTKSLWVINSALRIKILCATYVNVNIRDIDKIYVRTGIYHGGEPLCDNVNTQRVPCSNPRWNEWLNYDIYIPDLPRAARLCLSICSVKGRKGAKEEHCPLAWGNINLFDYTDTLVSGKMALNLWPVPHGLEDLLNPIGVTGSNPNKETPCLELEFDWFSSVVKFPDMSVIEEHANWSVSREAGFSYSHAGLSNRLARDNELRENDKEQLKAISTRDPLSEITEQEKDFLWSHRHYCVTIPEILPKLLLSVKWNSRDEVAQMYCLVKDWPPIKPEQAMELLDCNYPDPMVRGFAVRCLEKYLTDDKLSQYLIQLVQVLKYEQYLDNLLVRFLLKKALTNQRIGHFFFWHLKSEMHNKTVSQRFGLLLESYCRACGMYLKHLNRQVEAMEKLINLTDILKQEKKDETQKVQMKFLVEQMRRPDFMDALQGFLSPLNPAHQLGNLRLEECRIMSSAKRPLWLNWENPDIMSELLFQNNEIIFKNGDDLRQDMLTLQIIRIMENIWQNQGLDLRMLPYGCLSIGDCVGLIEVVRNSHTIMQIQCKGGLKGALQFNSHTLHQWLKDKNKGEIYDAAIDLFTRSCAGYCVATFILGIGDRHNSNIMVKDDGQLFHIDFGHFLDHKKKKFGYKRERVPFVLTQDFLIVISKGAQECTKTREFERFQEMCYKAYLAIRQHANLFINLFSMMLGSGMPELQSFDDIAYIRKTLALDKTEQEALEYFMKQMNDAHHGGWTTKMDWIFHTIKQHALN
# Chain of PI3K-alpha (P27986 whole entry partner, looked up, canonical isoform): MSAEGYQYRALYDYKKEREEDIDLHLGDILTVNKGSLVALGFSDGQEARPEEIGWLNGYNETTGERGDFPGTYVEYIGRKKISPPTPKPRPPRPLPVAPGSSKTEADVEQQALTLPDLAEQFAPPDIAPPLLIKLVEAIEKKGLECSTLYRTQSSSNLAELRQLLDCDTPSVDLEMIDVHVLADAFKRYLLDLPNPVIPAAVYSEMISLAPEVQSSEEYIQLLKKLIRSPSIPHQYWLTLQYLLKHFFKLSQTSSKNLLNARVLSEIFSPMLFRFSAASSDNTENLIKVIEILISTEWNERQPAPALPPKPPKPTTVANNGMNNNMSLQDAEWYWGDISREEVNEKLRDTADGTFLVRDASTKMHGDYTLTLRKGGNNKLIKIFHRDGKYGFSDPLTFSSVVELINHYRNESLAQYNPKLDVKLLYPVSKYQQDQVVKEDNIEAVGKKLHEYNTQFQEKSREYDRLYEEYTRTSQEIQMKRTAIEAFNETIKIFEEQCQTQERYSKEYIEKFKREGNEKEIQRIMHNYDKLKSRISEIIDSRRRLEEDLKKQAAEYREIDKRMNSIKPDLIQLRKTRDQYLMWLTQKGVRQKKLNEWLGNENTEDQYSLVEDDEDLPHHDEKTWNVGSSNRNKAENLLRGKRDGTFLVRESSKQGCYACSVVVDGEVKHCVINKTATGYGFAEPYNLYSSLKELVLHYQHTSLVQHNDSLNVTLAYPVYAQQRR
row,Structure (SMILES),Relative Selectivity versus PI3Kalpha
1,"CCn1ncc(-c2nc3c(OC4CC(C)N(C(=O)OC(C)(C)C)C4)ncnc3n2C)c1C (centres unmarked) [Compound 1-30, tert-butyl 4-((8-(1-ethyl-5-methyl-1H-pyrazol-4-yl)-9-methyl-9H-purin-6-yl)oxy)-2-methylpyrrolidine-1-carboxylate]",3
2,"CCn1c(-c2ccc(OC)nc2)nc2c(O[C@H]3CCN(C(=O)C4CC4)C3)ncnc21 [Compound 2-143, 6-{[(3S)-1-(cyclopropylcarbonyl)pyrrolidin-3-yl]oxy}-9-ethyl-8-(6-methoxypyridin-3-yl)-9H-purine]",>10
3,"CCn1ncc(-c2nc3c(O[C@H]4CCN(c5ncccn5)C4)ncnc3n2C)c1C [Compound 7-1, 8-(1-ethyl-5-methyl-1H-pyrazol-4-yl)-9-methyl-6-{[(3S)-1-pyrimidin-2-ylpyrrolidin-3-yl]oxy}-9H-purine]",>10
4,"CCC(=O)N1CC[C@H](Oc2ncnc3c2nc(-c2ccc(S(C)(=O)=O)cc2)n3C)C1 [Compound 3-39, 9-methyl-8-[4-(methyslulfonyl)phenyl]-6-{[(3S)-1-propanoylpyrrolidin-3-yl]oxy}-9H-purine]",>10
5,"CCn1c(-c2cnc(C)nc2)nc2c(O[C@H]3CCN(C(=O)N4CCC(CO)C4)C3)ncnc21 (stereo partly drawn) [Compound 5-18, (1-{[(3S)-3-{[9-ethyl-8-(2-methylpyrimidin-5-yl)-9H-purin-6-yl]oxy}pyrrolidin-1-yl]carbonyl}pyrrolidin-3-yl)methanol]",>10
6,"CCn1c(-c2cnc(C)nc2)nc2c(OC3CN(C(=O)C4CC4)CC3CF)ncnc21 (single isomer, unassigned) [Compound 3-69, cyclopropyl([(3S,4R) or (3R,4S)]-3-((9-ethyl-8-(2-methylpyrimidin-5-yl)-9H-purin-6-yl)oxy)-4-(fluoromethyl)pyrrolidin-1-yl)methanone]",>10
7,"CCn1c(-c2cnc(C)nc2)nc2c(O[C@H]3CCN(C(=O)C4CCOCC4)C3)ncnc21 [Compound 2-26, 9-ethyl-8-(2-methylpyrimidin-5-yl)-6-{[(3S)-1-(tetrahydro-2H-pyran-4-ylcarbonyl)pyrrolidin-3-yl]oxy}-9H-purine]",>10
8,"CCn1c(N2CCC(C)C2)nc2c(O[C@H]3CCN(C(=O)OC(C)(C)C)C3)ncnc21 (stereo partly drawn) [Compound 13-8, tert-butyl (3S)-3-{[9-ethyl-8-(3-methylpyrrolidin-1-yl)-9H-purin-6-yl]oxy}pyrrolidine-1-carboxylate]",>10
9,"CCn1ncc(-c2nc3c(O[C@H]4CCN(C(=O)c5ccnn5C)C4)ncnc3n2C)c1C [Compound 2-36, 8-(1-ethyl-5-methyl-1H-pyrazol-4-yl)-9-methyl-6-({(3S)-1-[(1-methyl-1H-pyrazol-5-yl)carbonyl]pyrrolidin-3-yl}oxy)-9H-purine]",>10
10,"CCn1c(-c2cnc(C)nc2)nc2c(O[C@H]3CCN(C(=O)c4ccn(C)n4)C3)ncnc21 [Compound 2-109, 9-ethyl-6-({(3S)-1-[(1-methyl-1H-pyrazol-3-yl)carbonyl]pyrrolidin-3-yl}oxy)-8-(2-methylpyrimidin-5-yl)-9H-purine]",>10
11,"CCn1c(-c2cnc(OC)c(C)c2)nc2c(O[C@H]3CCN(C(=O)OC(C)(C)C)C3)ncnc21 [Compound 1-34, tert-butyl (3S)-3-{[9-ethyl-8-(6-methoxy-5-methylpyridin-3-yl)-9H-purin-6-yl]oxy}pyrrolidine-1-carboxylate]",>10
12,"CCn1c(-c2cnc(C)nc2)nc2c(O[C@H]3C[C@H](NC(=O)OC(C)(C)C)C3)ncnc21 [Compound 9-6, tert-butyl (trans-3-{[9-ethyl-8-(2-methylpyrimidin-5-yl)-9H-purin-6-yl]oxy}cyclobutyl)carbamate]",>10
13,"CCn1ncc(-c2nc3c(O[C@H]4CCN(C(=O)C5CC5)C4)ncnc3n2C)c1C [Compound 2-16, 6-{[(3S)-1-(cyclopropylcarbonyl)pyrrolidin-3-yl]oxy}-8-(1-ethyl-5-methyl-1H-pyrazol-4-yl)-9-methyl-9H-purine]",>10
14,"CCC(=O)N1CC[C@H](Oc2ncnc3c2nc(-c2cnc(OC)c(C(F)(F)F)c2)n3C)C1 [Compound 3-6, (S)-1-(3-((8-(6-methoxy-5-(trifluoromethyl)pyridin-3-yl)-9-methyl-9H-purin-6-yl)oxy)pyrrolidin-1-yl)propan-1-one]",>10
15,CCn1c(-c2cnc(C)nc2)nc2c(O[C@H]3CCN(C(=O)C4C(C)C4C)C3)ncnc21 (some centres unmarked) [Compound 2-128],>10
16,"CCOC(=O)N1CC[C@H](Oc2ncnc3c2nc(-c2cnc(C)nc2)n3CC)C1 [Compound 1-43, (S)-ethyl 3-{[9-ethyl-8-(2-methylpyrimidin-5-yl)-9H-purin-6-yl]oxy}pyrrolidine-1-carboxylate]",>10

row,Structure (SMILES),Relative Selectivity versus PI3Kalpha
1,"CCn1c(-c2cnc(C)nc2)nc2c(OC3CN(C(=O)C4CC4)CC3F)ncnc21 (single isomer, unassigned) [Compound 2-137, 6-{[1-(cyclopropylcarbonyl)-(3S,4S)- or (3R,4R)-4-fluoropyrrolidin-3-yl]oxy}-9-ethyl-8-(2-methylpyrimidin-5-yl)-9H-purine]",>10
2,"CCn1c(C(=O)NCC(F)(F)F)nc2c(O[C@H]3CCN(C(=O)OC(C)(C)C)C3)ncnc21 [Compound 15-1, tert-butyl (3S)-3-({9-ethyl-8-[(2,2,2-trifluoroethyl)carbamoyl]-9H-purin-6-yl}oxy)pyrrolidine-1-carboxylate]",>10
3,"Cn1c(-c2cnn3cccnc23)nc2c(O[C@H]3CCN(C(=O)OC(C)(C)C)C3)ncnc21 [Compound 1-22, tert-butyl (3S)-3-[(9-methyl-8-pyrazolo[1,5-a]pyrimidin-3-yl-9H-purin-6-yl)oxy]pyrrolidine-1-carboxylate]",>10
4,"CCn1ncc(-c2nc3c(O[C@H]4CCN(CC5CCCCC5)C4)ncnc3n2C)c1C [Compound 6-2, 6-{[(3S)-1-(cyclohexylmethyl)pyrrolidin-3-yl]oxy}-8-(1-ethyl-5-methyl-1H-pyrazol-4-yl)-9-methyl-9H-purine]",>10
5,"CCn1c(-c2cnc(OC)c(C#N)c2)nc2c(O[C@H]3CCN(C(=O)C4CC4)C3)ncnc21 [Compound 3-42, 5-(6-{[(3S)-1-(cyclopropylcarbonyl)pyrrolidin-3-yl]oxy}-9-ethyl-9H-purin-8-yl)-2-methoxypyridine-3-carbonitrile]",>10
6,"CCC(=O)N1CC[C@H](Oc2ncnc3c2nc(-c2ccc(OC)nc2)n3C)C1 [Compound 3-33, 8-(6-methoxypyridin-3-yl)-9-methyl-6-{[(3S)-1-propanoylpyrrolidin-3-yl]oxy}-9H-purine]",>10
7,"CCn1ncc(-c2nc3c(O[C@H]4CCN(C(=O)c5cnn6cccnc56)C4)ncnc3n2C)c1C [Compound 2-41, 8-(1-ethyl-5-methyl-1H-pyrazol-4-yl)-9-methyl-6-{[(3S)-1-(pyrazolo[1,5-a]pyrimidin-3-ylcarbonyl)pyrrolidin-3-yl]oxy}-9H-purine]",6
8,"CCn1c(-c2ccc(OC(F)(F)F)cc2)nc2c(O[C@H]3CCN(C(=O)C4CC4)C3)ncnc21 [Compound 2-142, 6-{[(3S)-1-(cyclopropylcarbonyl)pyrrolidin-3-yl]oxy}-9-ethyl-8-[4-(trifluoromethoxy)phenyl]-9H-purine]",>10
9,"CCn1ncc(-c2nc3c(O[C@H]4CCN(C(=O)c5ccno5)C4)ncnc3n2C)c1C [Compound 2-32, 8-(1-ethyl-5-methyl-1H-pyrazol-4-yl)-6-{[(3S)-1-(isoxazol-5-ylcarbonyl)pyrrolidin-3-yl]oxy}-9-methyl-9H-purine]",>10
10,"CCn1ncc(-c2nc3c(O[C@H]4CCN(C(=O)c5ccncc5)C4)ncnc3n2C)c1C [Compound 2-64, 8-(1-ethyl-5-methyl-1H-pyrazol-4-yl)-9-methyl-6-{[(3S)-1-(pyridin-4-ylcarbonyl)pyrrolidin-3-yl]oxy}-9H-purine]",>10
11,"CCn1c(-c2cnc(C)nc2)nc2c(OC3CN(C(=O)OC(C)(C)C)CC3(F)F)ncnc21 (centres unmarked) [Compound 1-47, (4S and 4R)-tert-butyl 4-{[9-ethyl-8-(2-methylpyrimidin-5-yl)-9H-purin-6-yl]oxy}-3,3-difluoropyrrolidine-1-carboxylate]",>10
12,"CCn1c(-c2cnc(OC)c(NS(C)(=O)=O)c2)nc2c(O[C@H]3CCN(C(=O)C4CC4)C3)ncnc21 [Compound 3-41, N-[5-(6-{[(3S)-1-(cyclopropylcarbonyl)pyrrolidin-3-yl]oxy}-9-ethyl-9H-purin-8-yl)-2-methoxypyridin-3-yl]methanesulfonamide]",>10
13,"CCn1ncc(-c2nc3c(O[C@H]4CCN(C(=O)c5cccn5C)C4)ncnc3n2C)c1C [Compound 2-67, 8-(1-ethyl-5-methyl-1H-pyrazol-4-yl)-9-methyl-6-({(3S)-1-[(1-methyl-1H-pyrrol-2-yl)carbonyl]pyrrolidin-3-yl}oxy)-9H-purine]",>10
14,"CCn1c(-c2cnc(C)nc2)nc2c(O[C@H]3CCN(C(=O)C4CC4)[C@@H]3C)ncnc21 [Compound 2-98, 6-{[(2R,3S)-1-(cyclopropylcarbonyl)-2-methylpyrrolidin-3-yl]oxy}-9-ethyl-8-(2-methylpyrimidin-5-yl)-9H-purine]",>10
15,"Cn1c(-c2ccc(-n3cccn3)cc2)nc2c(O[C@H]3CCN(C(=O)OC(C)(C)C)C3)ncnc21 [Compound 1-15, tert-butyl (3S)-3-({9-methyl-8-[4-(1H-pyrazol-1-yl)phenyl]-9H-purin-6-yl}oxy)pyrrolidine-1-carboxylate]",>10
16,"CCn1c(C(=O)NC2CCCCC2)nc2c(O[C@H]3CCN(C(=O)OC(C)(C)C)C3)ncnc21 [Compound 15-4, tert-butyl (3S)-3-{[8-(cyclohexylcarbamoyl)-9-ethyl-9H-purin-6-yl]oxy}pyrrolidine-1-carboxylate]",>10
